Laboratory results published in patent US20040067565A1, “Selective functionalization of hydrocarbons with isolated oxygenases and mediator based regeneration” (priority 2002, published 2004).

System: 2-hydroxybiphenyl-3-monooxygenase (HbpA, E.C. 1.14.13.44)
Test: Residual HbpA activity while incubation with [Cp*Rh(bpy)(H2O)]2+
Type: biochemical
Method: HbpA-activities were determined by UV-spectroscopy according to literature methods by supplementing the experiment buffer with 0.1 mM NADH and observation of NADH-depletion at 340 nm for 1 minute, afterwards 2 mM of 2-hydroxybiphenyl were added and NADH depletion was measured for 1 minute. HbpA activity was determined as difference of both rates.
In a first experiment 0.11 U*ml^−1 HbpA of a partially enriched crude extract from recombinant E. coli overexpressing HbpA was incubated at 30° C. with 0, 0.02, 0.04, and 0.1 mM [Cp*Rh(bpy)(H2O)]^2+. In a second experiment c[Cp*Rh(bpy)(H2O)]^2+) was maintained at 0.02 mM whereas the HbpA content varied form 0.22 U*ml^−1 to 1.52 U*ml^−1.

[1] = [Cp*Rh(bpy)] 0.02 mM, [HbpA] 0.22 U/ml
[2] = [Cp*Rh(bpy)] 0.02 mM, [HbpA] 0.44 U/ml
[3] = [Cp*Rh(bpy)] 0.02 mM, [HbpA] 1.52 U/ml

In the case of `Cc1c(C)c(C)[c-](C)c1C.O.[Rh+3].c1ccc(-c2ccccn2)nc1` [[Cp*Rh(bpy)(H2O)]^2+], the “effect of incubation on HbpA enzymatic activity” value is reported as “complete loss of enzymatic activity”, the “HbpA activity at t = 60 min” value [1] is reported as 16% and the t25% [1] is reported as 39 min. For the same molecule, the “HbpA activity at t = 60 min” value [2] was 42%, the t25% [2] was 173 min and the “HbpA activity at t = 60 min” value [3] was 68%. For the same molecule, the t25% [3] was >1260 min, the t25% ([Hbpa] 0.11 U/ml, [Cp*Rh(bpy)] 0.02 mM, 30 °C) was 70 min and the t25% ([Hbpa] 0.11 U/ml, [Cp*Rh(bpy)] 0.04 mM, 30 °C) was 12 min. The t25% ([Hbpa] 0.11 U/ml, [Cp*Rh(bpy)] 0.1 mM, 30 °C) was <5 min.
